Experimental data from BindingDB's records for doi:10.7270/Q2N301S8 (D3R/Abbott, 2020).

target: Beta-secretase 1 (Homo sapiens, UniProt P56817); test: D3R2027
Text: D3R2027

Beta-secretase 1, sequence (P56817 whole entry): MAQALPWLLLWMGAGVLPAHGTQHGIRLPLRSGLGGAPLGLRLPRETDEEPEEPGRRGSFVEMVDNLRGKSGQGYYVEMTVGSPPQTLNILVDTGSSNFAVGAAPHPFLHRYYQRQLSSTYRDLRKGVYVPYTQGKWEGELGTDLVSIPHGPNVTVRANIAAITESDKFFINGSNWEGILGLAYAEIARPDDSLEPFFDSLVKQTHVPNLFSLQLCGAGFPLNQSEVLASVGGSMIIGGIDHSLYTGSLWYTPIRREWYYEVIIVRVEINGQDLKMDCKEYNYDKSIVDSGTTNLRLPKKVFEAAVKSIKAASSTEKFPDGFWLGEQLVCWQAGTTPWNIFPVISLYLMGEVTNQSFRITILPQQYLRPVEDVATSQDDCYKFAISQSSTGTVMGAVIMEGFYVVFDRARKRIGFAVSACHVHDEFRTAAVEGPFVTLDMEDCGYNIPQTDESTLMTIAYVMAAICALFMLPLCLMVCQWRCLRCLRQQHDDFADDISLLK

First: CCOc1ccc(C(F)(F)F)c(CNC[C@@H](O)[C@@H]2C[C@H](C)CCCCCCCCC(=O)N(C)[C@@H](C)C(=O)N2)c1 [BACE_24]
Second: CC(C)c1cccc(CNC[C@@H](O)[C@@H]2C[C@H](C)CCCCCOCC(=O)N(C)[C@@H](C)C(=O)N2)c1 [BACE_34]
The IC50 of the first is 19-fold lower: 53 nM for the first, 1000 nM for the second. The first is the more potent here.

Going from `C/C1=C\[C@@H]([C@H](O)CNCc2cccc(C(C)C)c2)NC(=O)c2cc(Cl)nc(c2)NCCCCOCC1` [BACE_49] to `COc1ccc2cc1OCCCCNc1cc(cc(Cl)n1)C(=O)N[C@H]([C@H](O)CNCc1cccc(C(C)C)c1)C2` [BACE_100], the IC50 falls from 470 nM to 39 nM (12-fold). The second is the more potent here.

First: C[C@@H]1CCCCCCCCS(=O)(=O)C[C@@H](C)C(=O)N[C@H]([C@H](O)CNC2(c3cccc(C(C)(C)C)c3)CC2)C1 [BACE_38]
Second: C[C@@H]1CCCCCCOCC(=O)N(C)[C@@H](C)C(=O)N[C@H]([C@H](O)CNC2(c3cccc(C(C)(C)C)c3)CC2)C1 [BACE_4]
The IC50 of the first is 3.2-fold higher: 24 nM for the first, 7.5 nM for the second. The second is the more potent here.

First: CCCCNC(=O)[C@H](C)C[C@H](O)[C@@H]1C[C@H](C)CCCCCCNc2cc(cc(OC)n2)C(=O)N1 [BACE_152]
Second: CCCCNC(=O)[C@H](C)C[C@H](O)[C@@H]1C[C@H](C)CCCCCN(CC)C(=O)c2cc(OCC)cc(c2)C(=O)N1 [BACE_1]
The IC50 of the first is 29-fold higher: 460 nM for the first, 16 nM for the second. The second is the more potent here.

Going from `CCCCNC(=O)[C@H](C)C[C@H](O)[C@@H]1Cc2cccc(c2)OCCCCS(=O)(=O)C[C@@H](C)C(=O)N1` [BACE_156] to `CC(C)c1cccc(CNC[C@@H](O)[C@@H]2Cc3cccc(c3)OCCCCS(=O)(=O)C[C@@H](C)C(=O)N2)c1` [BACE_94], the IC50 falls from 110 nM to 29 nM (3.8-fold). The second is the more potent here.

Compared with `CC(C)c1cccc(C(C)(C)NC[C@@H](O)[C@@H]2C[C@H](C)CCCCCCCNc3cccc(n3)C(=O)N2)c1` [BACE_70], `C[C@@H]1CCCCCCNC(=O)C[C@@H](C)C(=O)N[C@H]([C@H](O)CNCc2cccc(C(C)(C)C)c2)C1` [BACE_37] is 2-fold higher in IC50: 2900 nM for the first, 5900 nM for the second. The first is the more potent here.

Compared with `COCc1cc2cc(c1)C(=O)N[C@H]([C@H](O)CN[C@H]1CC(C)(C)Oc3ccc(C(C)C)cc31)C[C@H](C)CCCCCCCN2` [BACE_63], `CCCc1cc(CNC[C@@H](O)[C@@H]2C[C@H](C)CCCCCCCNc3cc(COC)cc(c3)C(=O)N2)no1` [BACE_64] is 570-fold higher in IC50: 1 nM for the first, 570 nM for the second. The first is the more potent here.

`CC(C)c1ccnc(C2(NC[C@@H](O)[C@@H]3C[C@H](C)CCCCCCCOc4cc(cc(Cl)n4)C(=O)N3)CC2)c1` [BACE_52] and `C[C@@H]1CCCCCCCOc2cc(cc(-c3ncco3)c2)C(=O)N[C@H]([C@H](O)CNC2(c3cc(C(C)(C)C)ccn3)CC2)C1` [BACE_81] are within 1.5-fold of each other in IC50: 7.5 nM for the first, 8.5 nM for the second.

First: Cc1cc2cc(n1)OCCCCc1cc(cc(Cl)c1O)C[C@@H]([C@H](O)CNC(C)(C)c1cc(CC(C)(C)C)on1)NC2=O [BACE_108]
Second: Cc1cc2cc(n1)NCCCCOCC[C@@H](C)C[C@@H]([C@H](O)CNC(C)(C)c1cc(CC(C)(C)C)on1)NC2=O [BACE_48]
The IC50 of the first is 5.2-fold lower: 16 nM for the first, 83 nM for the second. The first is the more potent here.

Going from `CN(C)C(=O)c1cc2cc(c1)C(=O)N[C@H]([C@H](O)CNC1(c3cccc(C(C)(C)C)c3)CC1)Cc1ccc(F)c(c1)OC/C=C\CN2` [BACE_131] to `C[C@@H]1CCCCCCCNc2cc(cc(C(=O)N(C)C)c2)C(=O)N[C@H]([C@H](O)CNC2(c3cccc(C(C)(C)C)c3)CC2)C1` [BACE_68], the IC50 falls from 41 nM to 1.5 nM (27-fold). The second is the more potent here.

Going from `C[C@H]1C(=O)N[C@H]([C@H](O)CNC2(c3cccc(Br)c3)CC2)Cc2cccc(c2)OCCCCCC(=O)N1C` [BACE_90] to `CC(=O)c1cc2cc(c1)C(=O)N[C@H]([C@H](O)CNC1(c3cccc(C(C)C)c3)CC1)Cc1cccc(c1)OCCCCN2` [BACE_14], the IC50 falls from 170 nM to 9 nM (19-fold).

First: COc1ccc2cc1OCCCCNc1cc(CO)cc(c1)C(=O)N[C@H]([C@H](O)CNCc1cccc(C(C)C)c1)C2 [BACE_130]
Second: COCc1cc2cc(c1)C(=O)N[C@H]([C@H](O)CNCc1cccc(C(C)C)c1)Cc1cccc(c1)OCCCCO2 [BACE_15]
The IC50 of the first is 13-fold higher: 960 nM for the first, 72 nM for the second.

First: C/C1=C\CCCCCCNc2cc(cc(C)n2)C(=O)N[C@H]([C@H](O)CNCc2cccc(C(C)C)c2)C1 [BACE_45]
Second: CC(C)c1cccc(CNC[C@@H](O)[C@@H]2C[C@@H]3CC[C@H](CCCCCNc4cc(cc(C(F)(F)F)c4)C(=O)N2)C3)c1 [BACE_71]
The IC50 of the first is 47-fold lower: 7.3 nM for the first, 340 nM for the second. The first is the more potent here.

`CC(C)c1cccc(CNC[C@@H](O)[C@@H]2Cc3cccc(c3)OCCCCO[C@H]3CCN(CC(=O)N2)C3=O)c1` [BACE_89] and `CC(C)c1cccc(CNC[C@@H](O)[C@@H]2C[C@H](C)CC/C=C/CCCCC(=O)N(C)[C@@H](C)C(=O)N2)c1` [BACE_21] are within 1.5-fold of each other in IC50: 260 nM for the first, 300 nM for the second.

`CC(C)(C)c1ccnc(CNC[C@@H](O)[C@@H]2Cc3cccc(c3)OC/C=C\CNc3cc(cc(Cl)n3)C(=O)N2)c1` [BACE_103] and `COCc1cc2cc(c1)C(=O)N[C@H]([C@H](O)CNC1(c3cccc(C(C)(C)C)c3)CC1)C[C@H](C)CCOC/C=C\CN2` [BACE_75] are within 1.5-fold of each other in IC50: 89 nM for the first, 60 nM for the second.

`CC(C)c1cccc(CNC[C@@H](O)[C@@H]2C[C@H](C)CC/C=C/CCCNc3cc(CO)cc(c3)C(=O)N2)c1` [BACE_66] and `C[C@@H]1CCCCCCCOc2cccc(c2)C(=O)N[C@H]([C@H](O)CN[C@@H](C)c2cc(CC(C)(C)C)on2)C1` [BACE_79] are within 1.5-fold of each other in IC50: 350 nM for the first, 300 nM for the second.

With `CCCCNC(=O)[C@H](C)C[C@H](O)[C@@H]1C[C@H](C)CCCC[C@H](C)CCC(=O)N[C@@H](C)C(=O)N1` [BACE_147] the IC50 was 920 nM.
